In PMC11178805, “Ligand-based design of [^18F]OXD-2314 for PET imaging in non-Alzheimer’s disease tauopathies” (Nature Communications, 2024):
“And” between values parts separate entries of the source, which are not always exact repeats. Equal entries are not always repeated.

Columns and labels:
[1] = target: T1, 3R/4R-tau aggregates in AD tissue (Homo sapiens, UniProt P10636); test: Competition binding vs [^3H]OXD-2115 in AD tissue homogenates; settings: vs [^3H]OXD-2115, AD tissue homogenates, n = 1
Description: (§1) Fresh frozen, autopsy-confirmed human PD anterior cingulate cortex brain tissue blocks (1 cm^3) were obtained from Dr. Thomas Beach at Banner/Sun Health AZ with funding from the Michael J. Fox Foundation and contained frequent α-synuclein aggregates and no other detectable aggregated amyloid species. The frozen tissue blocks were prepared for the binding assays as previously described[47],[48], except that equal quantities of the homogenates of three AD brains (AD1-AD3, Table S1) were pooled, as were homogenates from three PSP brains (PSP1-PSP3), three CBD brains (CBD1-CBD3), three Pick’s brains (PiD1-PiD3), and 4 PD brains (PD1-PD4) in order to help minimize the inter-subject variability within the different neuropathological groups. Individual subcortical brain tissues from a PSP subject (PSP4) and a CBD subject (CBD4), as well as with the middle frontal cortex of a control subject, were prepared for the binding assays as previously described[47],[48].
(§2) The equilibrium inhibition constant (Ki) values of the unlabeled compounds were determined versus tritium-labeled radioligands using published methods.
Target sequence in this assay (P10636 623-695 limits assumed): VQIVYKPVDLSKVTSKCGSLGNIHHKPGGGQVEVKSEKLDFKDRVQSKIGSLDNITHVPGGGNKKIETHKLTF

[2] = target: T1, 3R/4R-tau aggregates in AD tissue; test: Competition binding vs [^3H]OXD-2314 in AD tissue
Description: as §1, §2
Target sequence in this assay (P10636 623-758 limits assumed): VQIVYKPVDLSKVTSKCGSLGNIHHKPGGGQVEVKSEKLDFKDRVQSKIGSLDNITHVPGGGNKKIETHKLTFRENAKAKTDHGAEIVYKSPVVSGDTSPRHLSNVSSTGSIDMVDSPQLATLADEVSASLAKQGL

[3] = target: T2, 4R-tau aggregates in PSP tissue (Homo sapiens, UniProt P10636); test: Competition binding vs [^3H]OXD-2314 in PSP tissue
T2 construct: tissue Neurodegenerative Disease Brain Bank at UCSF
T2 sequence (P10636 1-441 isoform P10636-8): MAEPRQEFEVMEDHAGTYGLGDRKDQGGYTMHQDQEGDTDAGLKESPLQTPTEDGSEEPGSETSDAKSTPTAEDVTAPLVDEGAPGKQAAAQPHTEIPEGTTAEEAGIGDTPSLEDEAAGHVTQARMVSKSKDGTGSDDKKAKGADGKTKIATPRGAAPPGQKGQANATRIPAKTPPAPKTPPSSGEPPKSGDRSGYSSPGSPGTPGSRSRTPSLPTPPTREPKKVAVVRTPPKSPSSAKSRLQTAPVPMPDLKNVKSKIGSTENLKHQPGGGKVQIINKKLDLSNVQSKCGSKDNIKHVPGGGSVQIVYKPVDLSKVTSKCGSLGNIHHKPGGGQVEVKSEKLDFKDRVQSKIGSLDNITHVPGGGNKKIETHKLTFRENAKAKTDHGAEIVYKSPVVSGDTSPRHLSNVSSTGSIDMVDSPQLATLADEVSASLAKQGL
Description: as §1, §2

[4] = target: T3, 4R-tau aggregates in CBD tissue (Homo sapiens, UniProt P10636); test: Competition binding vs [^3H]OXD-2314 in CBD tissue
T3 construct: tissue Neurodegenerative Disease Brain Bank at UCSF; host or cells: human CBD brain, middle frontal gyrus (pool of three) or putamen (one subject)
T3 sequence (P10636 1-441 isoform P10636-8): as above
Description: as §1, §2

[5] = target: T4, 3R-tau aggregates in PiD tissue (Homo sapiens, UniProt P10636); test: Competition binding vs [^3H]OXD-2314 in PiD tissue
T4 construct: tissue Neurodegenerative Disease Brain Bank at UCSF; host or cells: human PiD brain, middle frontal gyrus, pooled homogenate of three brains
T4 sequence (P10636 1-410 isoform P10636-5): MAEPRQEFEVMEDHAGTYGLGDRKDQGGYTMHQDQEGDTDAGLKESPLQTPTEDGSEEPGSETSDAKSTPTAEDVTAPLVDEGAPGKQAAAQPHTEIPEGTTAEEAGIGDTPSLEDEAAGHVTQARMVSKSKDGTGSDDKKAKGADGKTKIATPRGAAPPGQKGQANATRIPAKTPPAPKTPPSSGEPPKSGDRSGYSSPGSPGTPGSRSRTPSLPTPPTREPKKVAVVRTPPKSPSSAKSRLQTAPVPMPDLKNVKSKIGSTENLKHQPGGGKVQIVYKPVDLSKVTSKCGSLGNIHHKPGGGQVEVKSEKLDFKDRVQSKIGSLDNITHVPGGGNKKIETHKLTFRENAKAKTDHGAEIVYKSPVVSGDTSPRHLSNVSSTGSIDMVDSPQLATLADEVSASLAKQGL
Description: as §1, §2

[6] = Mouse pharmacology (DMPK): plasma and brain concentrations, brain-to-plasma ratios after i.v. administration; type: in vivo, mice
Description: Ex vivo evaluation of the BBB permeability of OXD-2314 was performed by measuring the brain-to-plasma ratios in mice. Compound concentrations in plasma (0.03 h, 0.17 h, 0.5 h, 1 h, and 2 h; n = 3 per timepoint) were compared with concentrations in brain (0.03 h, 0.17 h, 1 h, and 2 h; n = 3 per timepoint) for both OXD-2115 and OXD-2314. The total brain-to-plasma concentration ratios were 1.7 for OXD-2314 and 0.1 for OXD-2115. The free concentration ratio for brain-to-plasma was 0.6 for OXD-2314 and 0.002 for OXD-2115 (Figs. S3–S8 and Tables S2, S3).

5-lipoxygenase = target: T5, 5-lipoxygenase (Homo sapiens, UniProt P09917); test: In vitro pharmacology enzyme screen (Eurofins): 5-lipoxygenase; type: biochemical
T5 construct: purchased Eurofins, France (contract screening)
T5 sequence (P09917 1-674): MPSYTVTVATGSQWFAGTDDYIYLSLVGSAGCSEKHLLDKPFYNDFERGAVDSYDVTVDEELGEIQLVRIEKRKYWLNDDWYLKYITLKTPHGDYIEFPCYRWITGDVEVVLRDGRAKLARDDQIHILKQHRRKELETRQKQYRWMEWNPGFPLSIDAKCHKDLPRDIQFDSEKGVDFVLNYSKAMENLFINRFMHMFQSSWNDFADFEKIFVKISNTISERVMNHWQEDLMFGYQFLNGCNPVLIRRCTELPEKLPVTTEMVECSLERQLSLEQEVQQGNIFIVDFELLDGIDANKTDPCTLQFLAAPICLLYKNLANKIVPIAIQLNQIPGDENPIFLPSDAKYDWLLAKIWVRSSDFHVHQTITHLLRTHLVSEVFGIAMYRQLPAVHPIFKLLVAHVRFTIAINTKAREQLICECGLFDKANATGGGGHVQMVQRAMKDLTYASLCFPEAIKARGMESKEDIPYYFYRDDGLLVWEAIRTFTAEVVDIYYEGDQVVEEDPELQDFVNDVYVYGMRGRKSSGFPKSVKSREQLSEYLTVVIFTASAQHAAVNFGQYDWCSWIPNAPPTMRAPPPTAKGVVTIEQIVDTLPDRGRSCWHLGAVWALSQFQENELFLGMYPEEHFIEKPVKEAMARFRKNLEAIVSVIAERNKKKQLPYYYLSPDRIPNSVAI
Description: (§3) OXD-2314 binding to CNS receptors was calculated as a percentage of inhibition of a receptor-specific radioligand. Enzyme inhibition was calculated as the percent inhibition of baseline enzyme activity where inhibition above 50% was considered significant. […] Norepinephrine transports are expressed in low concentration throughout the brain and its relative concentration are not affected by aging or neurodegeneration. 5-lipoxygenase may be overexpressed in aging brain and play some role in neurodegeneration, which could be necessary to further investigate in vivo[42]. Off-target binding to monoamine oxidase A and B (MAO-A and MAO-B) has been seen with some tau PET radiotracers[43],[44].

MAO-A = target: T6, MAO-A (Homo sapiens, UniProt P21397); test: In vitro pharmacology screen (Eurofins): MAO-A; type: binding; settings: read-out: interaction with MAO-A (% inhibition)
T6 construct: purchased Eurofins, France (contract screening)
T6 sequence (P21397 1-527): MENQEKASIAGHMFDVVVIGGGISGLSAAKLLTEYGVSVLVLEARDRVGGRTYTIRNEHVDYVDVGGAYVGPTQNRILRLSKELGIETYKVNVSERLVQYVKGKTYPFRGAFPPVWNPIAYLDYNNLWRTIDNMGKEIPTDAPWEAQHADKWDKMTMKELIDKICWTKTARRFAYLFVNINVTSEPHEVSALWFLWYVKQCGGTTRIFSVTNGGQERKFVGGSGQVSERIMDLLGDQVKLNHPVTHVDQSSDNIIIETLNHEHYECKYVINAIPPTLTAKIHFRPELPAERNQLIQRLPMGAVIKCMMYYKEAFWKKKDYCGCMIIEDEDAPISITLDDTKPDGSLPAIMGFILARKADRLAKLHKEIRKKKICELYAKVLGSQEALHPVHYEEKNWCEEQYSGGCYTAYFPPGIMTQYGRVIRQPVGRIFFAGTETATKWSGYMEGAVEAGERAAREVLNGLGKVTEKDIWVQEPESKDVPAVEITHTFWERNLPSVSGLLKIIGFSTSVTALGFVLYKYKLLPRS
Description: as §3

- Ki [1]: 8.8 nM
- Ki [2]: 4.8 ± 0.3 nM
- Ki [3]: 5.8 ± 0.2 nM
- Ki [4]: 6.5 ± 0.4 nM
- Ki [5]: 5.5 ± 0.5 nM
- Conc. (ng/ml), brain ([6]; mouse brain, t=1 hr after i.v. administration, individual animals, LC-MS/MS 341.7500>256.1500, re-run Brain_2): 0.851 ng/mL
- Conc. (ng/ml), brain ([6]; mouse brain, t=2 hr after i.v. administration, individual animals, LC-MS/MS 341.7500>256.1500, re-run Brain_2): 0.647 ng/mL and 0.5 ng/mL and 0.3 ng/mL
- Kp,uu (unbound brain-to-plasma ratio) ([6]; mouse, brain, iv, mice, i.v., AUC brain:plasma, FREE, read-out: free concentration ratio brain-to-plasma): 0.6
- Kp ([6]; mouse, brain, iv, mice, i.v., AUC brain:plasma, TOTAL, read-out: total brain-to-plasma concentration ratio): 1.7
- concentration at 1 h ([6]; mouse, brain, iv, mouse brain, t=1 hr after i.v. administration, individual animals, LC-MS/MS 341.7500>256.1500, re-run Brain_2, read-out: Conc. (ng/ml), brain): 1 ng/mL
- inhibition at 10 µM (5-lipoxygenase): 50.1%
- inhibition at 10 µM (MAO-A): -1.7%
Compound: COC1CCCN(c2ccc(-c3cc4cc(O)ccc4[nH]3)c(F)n2)C1 (stereo not drawn) [OXD-2314, 2-(2-fluoro-6-(3-methoxypiperidin-1-yl)pyridin-3-yl)-1H-indol-5-ol]
